Ki data for 35 compounds are collected here from patent publication US9725468B2, “C5-spiro iminothiazine dioxides as BACE inhibitors, compositions, and their use” (Merck Sharp & Dohme Corp., priority 2013, dated 2017).

What is called Ki is the dissociation constant of the complex between target and ligand, obtained from inhibition or displacement.

Assay [1] deals with T1, purified human autoBACE-2 (Homo sapiens, UniProt Q9Y5Z0).
T1 sequence (Q9Y5Z0 63-473 limits assumed): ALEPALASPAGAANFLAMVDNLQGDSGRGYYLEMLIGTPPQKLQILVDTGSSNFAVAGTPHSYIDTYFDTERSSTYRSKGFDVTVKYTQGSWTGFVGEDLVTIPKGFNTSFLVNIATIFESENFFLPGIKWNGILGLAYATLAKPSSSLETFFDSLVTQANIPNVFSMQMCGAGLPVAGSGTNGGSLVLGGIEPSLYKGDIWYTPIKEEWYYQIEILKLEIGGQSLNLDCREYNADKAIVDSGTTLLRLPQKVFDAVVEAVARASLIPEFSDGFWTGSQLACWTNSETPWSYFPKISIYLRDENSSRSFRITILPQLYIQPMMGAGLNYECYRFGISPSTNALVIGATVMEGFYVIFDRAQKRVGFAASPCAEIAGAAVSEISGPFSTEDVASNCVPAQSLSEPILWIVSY
The experiment in a line: BACE-2 Assay (BACE-HTRF assay). Format: biochemical. The settings on record: Ki calculated from IC50 using the Cheng-Prusoff equation; QSY7-EISEVNLDAEFC-Eu-amide substrate 200 nM, pH 5.0; read-out: BACE2 Ki. Here is the method:
Inhibitor ICsos at purified human autoBACE-2 are determined in a time-resolved endpoint proteolysis assay that measures hydrolysis of the QSY7-EISEVNLDAEFC-Eu-amide FRET peptide substrate (BACE-HTRF assay). BACE-mediated hydrolysis of this peptide results in an increase in relative fluorescence (RFU) at 620 nm after excitation with 320 nm light. Inhibitor compounds, prepared at 3× the desired final concentration in 1×BACE assay buffer (20 mM sodium acetate pH 5.0, 10% glycerol, 0.1% Brij-35) supplemented with 7.5% DMSO are preincubated with an equal volume of autoBACE-2 enzyme diluted in 1×BACE assay buffer (final enzyme concentration 1 nM) in black 384-well NUNC plates for 30 minutes at 30° C. The assay is initiated by addition of an equal volume of the QSY7-EISEVNLDAEFC-Eu-amide substrate (200 nM final concentration, […]) prepared in 1×BACE assay buffer supplemented with 7.5% DMSO and incubated for 90 minutes at 30° C. DMSO is present at 5% final concentration in the assay. Following laser excitation of sample wells at 320 nm, the fluorescence signal at 620 nm is collected for 400 ms following a 50 μs delay on a RUBYstar HTRF plate reader (BMG Labtechnologies). Raw RFU data is normalized to maximum (1.0 nM BACE/DMSO) and minimum (no enzyme/DMSO) RFU values. IC50s are determined by nonlinear regression analysis (sigmoidal dose response, variable slope) of percent inhibition data with minimum and maximum values set to 0 and 100 percent respectively. Similar IC50s are obtained when using raw RFU data. The Ki values are calculated from the IC50 using the Cheng-Prusoff equation.

Assay [2] deals with soluble human BACE1 catalytic domain (Homo sapiens, UniProt P56817). The experiment in a line: BACE1 HTRF FRET Assay. The format is biochemical. The settings on record: Ki calculated from IC50 using the Cheng-Prusoff equation; QSY7-APPswe-Eu substrate 200 nM, pH 5.0. From the text: Na^+-Acetate pH 5.0; 1% Brij-35; Glycerol; Dimethyl Sulfoxide (DMSO); Recombinant human soluble BACE1 catalytic domain (>95% pure); APP Swedish mutant peptide substrate (QSY7-APP^swe-Eu): QSY7-EISEVNLDAEFC-Europium-amide.
A homogeneous time-resolved FRET assay can be used to determine IC50 values for inhibitors of the soluble human BACE1 catalytic domain. This assay monitors the increase of 620 nm fluorescence that resulted from BACE1 cleavage of an APPswedish APP^swe mutant peptide FRET substrate (QSY7-EISEVNLDAEFC-Europium-amide). This substrate contains an N-terminal QSY7 moiety that serves as a quencher of the C-terminal Europium fluorophore (620 nm Em). In the absence of enzyme activity, 620 nm fluorescence is low in the assay and increased linearly over 3 hours in the presence of uninhibited BACE1 enzyme. Inhibition of BACE1 cleavage of the QSY7-APP^swe-Eu substrate by inhibitors is manifested as a suppression of 620 nm fluorescence.
Varying concentrations of inhibitors at 3× the final desired concentration in a volume of 10 ul are preincubated with purified human BACE1 catalytic domain (3 nM in 10 μl) for 30 minutes at 30° C. in reaction buffer containing 20 mM Na-Acetate pH 5.0, 10% glycerol, 0.1% Brij-35 and 7.5% DSMO. Reactions are initiated by addition of 10 μl of 600 nM QSY7-APP^swe-Eu substrate (200 nM final) to give a final reaction volume of 30 μl in a 384 well Nunc HTRF plate. The reactions are incubated at 30° C. for 1.5 hours. The 620 nm fluorescence is then read on a Rubystar HTRF plate reader (BMG Labtechnologies) using a 50 millisecond delay followed by a 400 millisecond acquisition time window. Inhibitor IC50 values are derived from non-linear regression analysis of concentration response curves. Ki values are then calculated from IC50 values using the Cheng-Prusoff equation using a previously determined […] for the QSY7-APP^swe-Eu substrate at BACE1.

Chain of soluble human BACE1 catalytic domain (P56817 75-416 limits assumed): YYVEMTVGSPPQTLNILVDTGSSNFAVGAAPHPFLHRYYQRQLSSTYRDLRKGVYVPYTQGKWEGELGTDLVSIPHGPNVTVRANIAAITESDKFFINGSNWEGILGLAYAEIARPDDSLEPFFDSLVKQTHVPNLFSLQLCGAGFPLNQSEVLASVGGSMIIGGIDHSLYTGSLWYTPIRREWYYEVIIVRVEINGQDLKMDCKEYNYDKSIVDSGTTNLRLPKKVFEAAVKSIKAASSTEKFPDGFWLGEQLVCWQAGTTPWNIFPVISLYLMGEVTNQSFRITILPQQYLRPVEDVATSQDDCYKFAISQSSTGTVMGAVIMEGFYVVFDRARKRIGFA

Consider `CC1(C)C(=N)N[C@@]2(CCOc3ccc(NC(=O)c4ccc(Cl)cn4)cc32)CS1(=O)=O` [Example B-1], for which the Ki in assay [1] is 2 nM; in assay [2] it was 8 nM.

Regarding `COc1ccc(C(=O)Nc2ccc3c(c2)[C@]2(CCO3)CS(=O)(=O)C(C)(C)C(=N)N2)nc1` [Example B-2], the Ki in assay [1] is 28 nM; in assay [2], 58 nM.

As to `COCC(=O)Nc1ccc2c(c1)[C@]1(CCO2)CS(=O)(=O)C(C)(C)C(=N)N1` [Example B-3], the Ki in assay [1] is 59 nM; in assay [2], 391 nM.

For `CC1(C)C(=N)N[C@@]2(CCOc3ccc(NC(=O)C(F)F)cc32)CS1(=O)=O` [Example B-4], the Ki in assay [1] was 115 nM; in assay [2] it was 1280 nM.

With `CC1(C)C(=N)N[C@@]2(CCOc3ccc(NC(=O)c4ccn(C(F)F)n4)cc32)CS1(=O)=O` [Example C-1], the Ki in assay [1] is 1 nM; in assay [2], 3 nM.

On to `Cc1nc(C(=O)Nc2ccc3c(c2)[C@]2(CCO3)CS(=O)(=O)C(C)(C)C(=N)N2)co1` [Example C-2], for which the results for the Ki in assay [1] and in assay [2] were 3 nM and 18 nM, respectively.

For the compound `C#CCOc1cnc(C(=O)Nc2ccc3c(c2)[C@]2(CCO3)CS(=O)(=O)C(C)(C)C(=N)N2)cn1` [Example C-3], the Ki is 14 nM in assay [1] and 3 nM in assay [2].

Consider `CC1(C)C(=N)N[C@@]2(CCOc3ccc(NC(=O)c4cnsn4)cc32)CS1(=O)=O` [Example C-4], for which the Ki in assay [1] is 5 nM; in assay [2] it was 3 nM.

In the case of `CC1(C)C(=N)N[C@@]2(CCOc3ccc(NC(=O)c4cc5ccccn5n4)cc32)CS1(=O)=O` [Example C-5], the inhibitory constant (Ki) in assay [1] is 49 nM; in assay [2], 223 nM.

As for `CC1(C)C(=N)N[C@@]2(CCOc3ccc(NC(=O)c4ccc(C(F)(F)F)cn4)cc32)CS1(=O)=O` [Example C-6], the values for the Ki in assay [1] and in assay [2] were 50 nM and 10 nM, respectively.

Regarding `Cc1nc(C(=O)Nc2ccc3c(c2)[C@]2(CCO3)CS(=O)(=O)C(C)(C)C(=N)N2)no1` [Example C-7], the Ki in assay [1] was 4 nM; in assay [2] it was 47 nM.

On to `CC1(C)C(=N)N[C@@]2(CCOc3ccc(NC(=O)c4cn5cc(C#N)ccc5n4)cc32)CS1(=O)=O` [Example C-8], for which the values for the Ki in assay [1] and in assay [2] were 157 nM and 121 nM, respectively.

Take `CC1(C)C(=N)N[C@@]2(CCOc3ccc(NC(=O)c4ccc(F)cn4)cc32)CS1(=O)=O` [Example C-9]: the Ki in assay [1] was 5 nM; in assay [2], 33 nM.

On to `CC1(C)C(=N)N[C@@]2(CCOc3ccc(NC(=O)c4ccc(OC(F)F)cn4)cc32)CS1(=O)=O` [Example C-10], for which the Ki is 22 nM in assay [1] and 8 nM in assay [2].

`CC1(C)C(=N)N[C@@]2(CCOc3ccc(NC(=O)c4ccc(OC(F)(F)F)cn4)cc32)CS1(=O)=O` [Example C-11]: the Ki in assay [1] is 41 nM; in assay [2], 10 nM.

As for `CC1(C)C(=N)N[C@@]2(CCOc3ccc(NC(=O)c4cnc(OCCF)cn4)cc32)CS1(=O)=O` [Example C-12], the values for the Ki in assay [1] and in assay [2] were 98 nM and 45 nM, respectively.

As to `CC1(C)C(=N)N[C@@]2(CCOc3ccc(NC(=O)c4ccc(OCF)cn4)cc32)CS1(=O)=O` [Example C-13], the figures for the Ki in assay [1] and in assay [2] were 8 nM and 14 nM, respectively.

`Cc1cn(C)nc1C(=O)Nc1ccc2c(c1)[C@]1(CCO2)CS(=O)(=O)C(C)(C)C(=N)N1` [Example C-14]: the Ki in assay [1] is 1 nM; in assay [2], 15 nM.

On to `CC1(C)C(=N)N[C@@]2(CCOc3ccc(NC(=O)c4ccc(C#N)cn4)cc32)CS1(=O)=O` [Example C-15], for which the Ki in assay [1] is 9 nM; in assay [2], 3 nM.

Take `CC1(C)C(=N)N[C@@]2(CCOc3ccc(NC(=O)c4ncc(C(F)(F)F)cn4)cc32)CS1(=O)=O` [Example C-16]: the inhibition constant (Ki) is 98 nM in assay [1] and 107 nM in assay [2].

Take `CC1(C)C(=N)N[C@@]2(CCOc3ccc(NC(=O)c4ncc(Cl)cc4F)cc32)CS1(=O)=O` [Example C-17]: the inhibitory constant (Ki) in assay [1] was 2 nM; in assay [2], 8 nM.

For `CC#CCOc1ccc(C(=O)Nc2ccc3c(c2)[C@]2(CCO3)CS(=O)(=O)C(C)(C)C(=N)N2)nc1` [Example C-18], the Ki is 45 nM in assay [1] and 3 nM in assay [2].

As to `C#CCOc1ccc(C(=O)Nc2ccc3c(c2)[C@]2(CCO3)CS(=O)(=O)C(C)(C)C(=N)N2)nc1` [Example C-19], the Ki in assay [1] was 48 nM; in assay [2], 7 nM.

For `COc1cnc(C(=O)Nc2ccc3c(c2)[C@]2(CCO3)CS(=O)(=O)C(C)(C)C(=N)N2)c(C)c1` [Example C-20], the inhibition constant (Ki) was 3 nM in assay [1] and 20 nM in assay [2].

With `COc1cnc(C(=O)Nc2ccc3c(c2)[C@]2(CCO3)CS(=O)(=O)C(C)(C)C(=N)N2)c(C)n1` [Example C-21], the Ki in assay [1] is 20 nM; in assay [2], 40 nM.

In the case of `Cc1cc(C#N)cnc1C(=O)Nc1ccc2c(c1)[C@]1(CCO2)CS(=O)(=O)C(C)(C)C(=N)N1` [Example C-22], the Ki was 3 nM in assay [1] and 2 nM in assay [2].

Take `COc1cnc(C(=O)Nc2ccc3c(c2)[C@]2(CCO3)CS(=O)(=O)C(C)(C)C(=N)N2)cn1` [Example C-23]: the Ki in assay [1] is 46 nM; in assay [2] it was 52 nM.

Consider `CC1(C)C(=N)N[C@@]2(CCOc3ccc(NC(=O)c4cnc(C(F)(F)F)cn4)cc32)CS1(=O)=O` [Example C-24], for which the figures for the Ki in assay [1] and in assay [2] were 184 nM and 39 nM, respectively.

As to `CC1(C)C(=N)N[C@@]2(COCc3ccc(NC(=O)c4ccc(Cl)cn4)cc32)CS1(=O)=O` [Example D-1], the Ki in assay [1] was 7 nM; in assay [2] it was 23 nM.

`CC1(C)C(=N)N[C@@]2(COCc3ccc(NC(=O)c4ncc(C(F)(F)F)cn4)cc32)CS1(=O)=O` [Example E-1]: the figures for the Ki in assay [1] and in assay [2] were 512 nM and 644 nM, respectively.

Regarding `CC1(C)C(=N)N[C@@]2(COCc3ccc(NC(=O)c4cc5ccccn5n4)cc32)CS1(=O)=O` [Example E-2], the inhibitory constant (Ki) was 200 nM in assay [1] and 1200 nM in assay [2].

As to `CC1(C)C(=N)N[C@@]2(COCc3ccc(NC(=O)c4ccc(OC(F)(F)F)cn4)cc32)CS1(=O)=O` [Example E-3], the Ki is 175 nM in assay [1] and 50 nM in assay [2].

For `C#CCOc1cnc(C(=O)Nc2ccc3c(c2)[C@]2(COC3)CS(=O)(=O)C(C)(C)C(=N)N2)cn1` [Example E-4], the values for the Ki in assay [1] and in assay [2] were 72 nM and 20 nM, respectively.

On to `Cc1cc(C#N)cnc1C(=O)Nc1ccc2c(c1)[C@]1(COC2)CS(=O)(=O)C(C)(C)C(=N)N1` [Example E-5], for which the Ki was 8 nM in assay [1] and 6 nM in assay [2].

For the compound `CC1(C)C(=N)N[C@@]2(COCc3ccc(NC(=O)c4ccc(C(F)(F)F)cn4)cc32)CS1(=O)=O` [Example E-6], the figures for the Ki in assay [1] and in assay [2] were 155 nM and 41 nM, respectively.
